Experimental data as given in PubChem BioAssay AID248 (DTP/NCI, 2004).
Values joined by “and” are separate entries in the source; they are usually repeats but may differ in a detail not shown here. Equal entries are not always repeated. Toxic doses and inconclusive results are not listed. Rule as the data show it: active = T/C of 150% or more; inactive = T/C below 125%.

Test system: L1210 leukemia ip in BDF1 mice, survival T/C
Experiment: NCI In Vivo Anticancer Drug Screen. Data for tumor model L1210 Leukemia (intraperitoneal) in B6D2F1 (BDF1) mice
Conditions: endpoint: mean survival time, higher = longer survival
Outline: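 Antitumor effect is assessed in tumor-bearing animals. Survival in the compound arm is compared with a vehicle-dosed control arm and expressed as their quotient.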

[1] = dose: 50.0 mg/kg/injection, schedule: Q01DX009 (ip), vehicle: Klucel (hydroxypropylcellulose) (HPC)
[2] = dose: 50.0 mg/kg/injection, schedule: Q04DX003 (ip), vehicle: Klucel (hydroxypropylcellulose) (HPC)
[3] = dose: 100.0 mg/kg/injection, schedule: Q04DX002 (ip), vehicle: Klucel (hydroxypropylcellulose) (HPC)
[4] = dose: 100.0 mg/kg/injection, schedule: Q04DX003 (ip), vehicle: Klucel (hydroxypropylcellulose) (HPC)
[5] = dose: 200.0 mg/kg/injection, schedule: Q04DX002 (ip), vehicle: Klucel (hydroxypropylcellulose) (HPC)
[6] = dose: 100.0 mg/kg/injection, schedule: Q01DX001 (ip), vehicle: saline
[7] = dose: 200.0 mg/kg/injection, schedule: Q01DX001 (ip), vehicle: saline
[8] = dose: 400.0 mg/kg/injection, schedule: Q01DX001 (ip), vehicle: saline
[9] = dose: 100.0 mg/kg/injection, schedule: Q01DX009 (ip), vehicle: Klucel (hydroxypropylcellulose) (HPC)
[10] = dose: 400.0 mg/kg/injection, schedule: Q01DX009 (ip), vehicle: Klucel (hydroxypropylcellulose) (HPC)
[11] = dose: 200.0 mg/kg/injection, schedule: Q04DX003 (ip), vehicle: Klucel (hydroxypropylcellulose) (HPC)
[12] = dose: 400.0 mg/kg/injection, schedule: Q04DX003 (ip), vehicle: Klucel (hydroxypropylcellulose) (HPC)
[13] = dose: 100.0 mg/kg/injection, schedule: Q04DX003 (ip), vehicle: saline with Tween-80
[14] = dose: 100.0 mg/kg/injection, schedule: Q04DX002 (ip), vehicle: saline with Tween-80
[15] = dose: 200.0 mg/kg/injection, schedule: Q04DX002 (ip), vehicle: saline with Tween-80
[16] = dose: 400.0 mg/kg/injection, schedule: Q04DX002 (ip), vehicle: saline with Tween-80
[17] = dose: 100.0 mg/kg/injection, schedule: Q01DX001 (ip), vehicle: saline with Tween-80
[18] = dose: 200.0 mg/kg/injection, schedule: Q01DX001 (ip), vehicle: saline with Tween-80
[19] = dose: 400.0 mg/kg/injection, schedule: Q01DX001 (ip), vehicle: saline with Tween-80
[20] = dose: 400.0 mg/kg/injection, schedule: Q04DX002 (ip), vehicle: Klucel (hydroxypropylcellulose) (HPC)

Measured: T/C

CNC(=O)Oc1ccccc1C(=O)NCO
inactive: dose: 50.0 mg/kg/injection, schedule: Q01DX001 (ip), vehicle: Klucel (hydroxypropylcellulose) (HPC) 97 % of control | [1] 101 % of control and 107 % of control | [2] 97 % of control | dose: 100.0 mg/kg/injection, schedule: Q01DX001 (ip), vehicle: Klucel (hydroxypropylcellulose) (HPC) 101 % of control | [3] 94 % of control and 101 % of control | [4] 106 % of control | [5] 98 % of control

CCCCCCC(c1ccccc1)c1ccccc1
inactive: [6] 100 % of control | [7] 97 % of control | [8] 100 % of control

N#CC(CCO)(CCO)c1ccccc1
inactive: [9] 101 % of control | dose: 200.0 mg/kg/injection, schedule: Q01DX009 (ip), vehicle: Klucel (hydroxypropylcellulose) (HPC) 97 % of control | [10] 105 % of control

O=C(COc1ccccc1)Oc1c(Cl)cc(Cl)cc1Cl
inactive: [4] 98 % of control | [11] 100 % of control | [12] 100 % of control

CCC1COP(=O)(c2ccccc2)OC1 (stereo unspecified)
inactive: [6] 103 % of control | [7] 103 % of control | [8] 100 % of control

O=C1C(=O)c2ccccc2-c2ccccc21
inactive: [2] 98 % of control | [4] 97 % of control | [11] 98 % of control

O=[N+]([O-])c1cc([N+](=O)[O-])c(NN(c2ccccc2)c2ccccc2)c([N+](=O)[O-])c1
inactive: dose: 12.5 mg/kg/injection, schedule: Q01DX Z (ip), vehicle: other 106 % of control | dose: 25.0 mg/kg/injection, schedule: Q01DX Z (ip), vehicle: other 102 % of control | [4] 92 % of control | [11] 88 % of control | [12] 91 % of control

CCC(O)(c1ccccc1)c1ccccc1
inactive: [13] 103 % of control | dose: 200.0 mg/kg/injection, schedule: Q04DX003 (ip), vehicle: saline with Tween-80 99 % of control | dose: 400.0 mg/kg/injection, schedule: Q04DX003 (ip), vehicle: saline with Tween-80 98 % of control

CN1CCN(C(=O)c2ccc(C(=O)N3CCN(C)CC3)cc2)CC1
inactive: dose: 15.0 mg/kg/injection, schedule: Q01DX Z (ip), vehicle: saline 94 % of control | dose: 30.0 mg/kg/injection, schedule: Q01DX Z (ip), vehicle: saline 94 % of control | dose: 60.0 mg/kg/injection, schedule: Q01DX Z (ip), vehicle: saline 108 % of control | dose: 120.0 mg/kg/injection, schedule: Q01DX Z (ip), vehicle: saline 102 % of control | dose: 125.0 mg/kg/injection, schedule: Q01DX Z (ip), vehicle: carboxymethylcellulose (CMC) 96 % of control | dose: 250.0 mg/kg/injection, schedule: Q01DX Z (ip), vehicle: carboxymethylcellulose (CMC) 102 % of control | dose: 500.0 mg/kg/injection, schedule: Q01DX Z (ip), vehicle: carboxymethylcellulose (CMC) 90 % of control

ClCc1noc(-c2ccccc2)n1
inactive: [14] 98 % of control | [15] 95 % of control | [16] 101 % of control

O=C(O)CC1(CC(=O)O)C(=O)N(c2ccccc2)c2ccccc21
inactive: [17] 95 % of control | [18] 90 % of control | [19] 97 % of control

O=C(CNC(=O)NCc1ccco1)N/N=C/c1ccc(Cl)c(Cl)c1
inactive: [1] 89 % of control | [9] 86 % of control and 88 % of control | [10] 90 % of control

O=C(O)c1cc([N+](=O)[O-])ccc1Cl
inactive: [3] 117 % of control | [5] 103 % of control | [20] 98 % of control

CCCCCCCCCCCCCCCC[N+]1(CC)CCOCC1
inactive: dose: 5.0 mg/kg/injection, schedule: Q01DX001 (ip), vehicle: Klucel (hydroxypropylcellulose) (HPC) 97 % of control | dose: 5.0 mg/kg/injection, schedule: Q01DX001 (ip), vehicle: saline 100 % of control | dose: 5.0 mg/kg/injection, schedule: Q01DX009 (ip), vehicle: Klucel (hydroxypropylcellulose) (HPC) 98 % of control and 103 % of control | dose: 10.0 mg/kg/injection, schedule: Q01DX001 (ip), vehicle: Klucel (hydroxypropylcellulose) (HPC) 113 % of control | dose: 10.0 mg/kg/injection, schedule: Q01DX001 (ip), vehicle: saline 103 % of control | dose: 10.0 mg/kg/injection, schedule: Q01DX009 (ip), vehicle: saline 121 % of control and 88 % of control | dose: 10.0 mg/kg/injection, schedule: Q04DX002 (ip), vehicle: Klucel (hydroxypropylcellulose) (HPC) 98 % of control and 108 % of control | dose: 10.0 mg/kg/injection, schedule: Q04DX002 (ip), vehicle: saline 95 % of control | dose: 20.0 mg/kg/injection, schedule: Q01DX001 (ip), vehicle: Klucel (hydroxypropylcellulose) (HPC) 111 % of control | dose: 20.0 mg/kg/injection, schedule: Q01DX001 (ip), vehicle: saline 103 % of control | dose: 20.0 mg/kg/injection, schedule: Q04DX002 (ip), vehicle: Klucel (hydroxypropylcellulose) (HPC) 98 % of control and 101 % of control | dose: 20.0 mg/kg/injection, schedule: Q04DX002 (ip), vehicle: saline 102 % of control | dose: 40.0 mg/kg/injection, schedule: Q04DX002 (ip), vehicle: Klucel (hydroxypropylcellulose) (HPC) 90 % of control | dose: 40.0 mg/kg/injection, schedule: Q04DX002 (ip), vehicle: saline 95 % of control and 98 % of control | [5] 93 % of control | [20] 88 % of control

Cc1ccc(Cl)cc1NC(=O)Nc1ccccc1F
inactive: dose: 25.0 mg/kg/injection, schedule: Q04DX003 (ip), vehicle: saline with Tween-80 94 % of control | dose: 50.0 mg/kg/injection, schedule: Q04DX003 (ip), vehicle: saline with Tween-80 86 % of control and 91 % of control | [17] 92 % of control | dose: 100.0 mg/kg/injection, schedule: Q01DX009 (ip), vehicle: saline with Tween-80 103 % of control and 105 % of control | [14] 98 % of control and 92 % of control | [13] 104 % of control and 90 % of control | [18] 92 % of control | dose: 200.0 mg/kg/injection, schedule: Q01DX009 (ip), vehicle: saline with Tween-80 98 % of control and 90 % of control | [15] 95 % of control and 92 % of control | [19] 89 % of control | dose: 400.0 mg/kg/injection, schedule: Q01DX009 (ip), vehicle: saline with Tween-80 94 % of control and 92 % of control | [16] 90 % of control and 92 % of control

COc1cc(Br)c(CC(=O)O)cc1OC
inactive: dose: 100.0 mg/kg/injection, schedule: Q04DX003 (ip), vehicle: acetone 96 % of control | dose: 200.0 mg/kg/injection, schedule: Q04DX003 (ip), vehicle: acetone 95 % of control | dose: 400.0 mg/kg/injection, schedule: Q04DX003 (ip), vehicle: acetone 93 % of control

Nc1nc2c(nnn2C2OC(COP(=O)(O)O)C(O)C2O)c(=O)[nH]1 (stereo unspecified)
inactive: dose: 2.5 mg/kg/injection, schedule: Q01DX Z (ip), vehicle: other 89 % of control | dose: 5.0 mg/kg/injection, schedule: Q01DX Z (ip), vehicle: other 97 % of control | dose: 10.0 mg/kg/injection, schedule: Q01DX Z (ip), vehicle: other 102 % of control | dose: 20.0 mg/kg/injection, schedule: Q01DX Z (ip), vehicle: other 118 % of control | dose: 30.0 mg/kg/injection, schedule: Q01DX Z (ip), vehicle: other 120 % of control | dose: 50.0 mg/kg/injection, schedule: Q01DX Z (ip), vehicle: other 118 % of control

C1=C\CCCCCCCC/1
inactive: dose: 6.25 mg/kg/injection, schedule: Q01DX009 (ip), vehicle: saline with Tween-80 93 % of control | dose: 12.5 mg/kg/injection, schedule: Q01DX009 (ip), vehicle: saline with Tween-80 104 % of control | dose: 25.0 mg/kg/injection, schedule: Q01DX009 (ip), vehicle: saline with Tween-80 98 % of control | [6] 101 % of control | [7] 101 % of control | [8] 95 % of control

c1ccc(-c2cnc(-c3ccccc3)cn2)cc1
inactive: dose: 25.6 mg/kg/injection, schedule: Q04DX002 (ip), vehicle: saline with Tween-80 112 % of control | dose: 64.0 mg/kg/injection, schedule: Q04DX002 (ip), vehicle: saline with Tween-80 96 % of control | dose: 160.0 mg/kg/injection, schedule: Q04DX002 (ip), vehicle: saline with Tween-80 93 % of control | [16] 104 % of control
